# According to patent US20230066011A1, “PYRROLOPYRIMIDINE DERIVATIVE, AND PHARMACEUTICAL COMPOSITION FOR PREVENTING OR TREATING PROTEIN KINASE-RELATED DISEASE COMPRISING SAME AS ACTIVE INGREDIENT” (VORONOI CO., LTD., priority 2019, published 2023):
# How the values were obtained:
# MDA-MB-468 cell line = test: Inhibition of proliferation of MDA-MB-468 cancer cells (Cell Titer-Glo); format: cell-based; conditions: Homo sapiens, MDA-MB-468, 72 hours
# Method in brief: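 Cells seeded at 2,000/well and exposed 72 h to 11 concentrations of compound (3-fold dilutions, final 10.000000 down to 0.000169 μM) in DMEM or RPMI. Viability read by Cell Titer-Glo luminescence after 10 min at room temperature; GI50 calculated from luminescence.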
# human GST-DYRK1A = biological target: T1, human GST-DYRK1A (Homo sapiens, UniProt Q13627); test: GST-DYRK1A enzyme inhibition, ADP-Glo kinase assay; format: biochemical; conditions: ATP 10 μM, GST-DYRK1A full length, read-out: DYRK1 IC50
# T1 construct: purified human GST-DYRK1A (full length, Thermo Scientifics) enzyme; purchased Thermo Scientifics
# Method in brief: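 Full-length human GST-DYRK1A (10 ng) with 10 μM ATP and specific substrate in 40 mM Tris-HCl pH 7.4, 20 mM MgCl2, 0.5 mg/mL BSA, 50 μM DTT, 1 h at 25 °C. ADP formation read by ADP-Glo luminescence relative to solvent control; IC50 from three data sets.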
# LRRK2 (G2019S) = LRRK2 (G2019S) (Homo sapiens, UniProt Q5S007, G2019S); test: LRRK2 G2019S enzyme inhibition, ADP-Glo kinase assay; format: biochemical; design: purchased SignalChem L10-12GG; conditions: ATP 25 μM
# Sequence of LRRK2 (G2019S) (Q5S007 970-2527 G2019S limits assumed): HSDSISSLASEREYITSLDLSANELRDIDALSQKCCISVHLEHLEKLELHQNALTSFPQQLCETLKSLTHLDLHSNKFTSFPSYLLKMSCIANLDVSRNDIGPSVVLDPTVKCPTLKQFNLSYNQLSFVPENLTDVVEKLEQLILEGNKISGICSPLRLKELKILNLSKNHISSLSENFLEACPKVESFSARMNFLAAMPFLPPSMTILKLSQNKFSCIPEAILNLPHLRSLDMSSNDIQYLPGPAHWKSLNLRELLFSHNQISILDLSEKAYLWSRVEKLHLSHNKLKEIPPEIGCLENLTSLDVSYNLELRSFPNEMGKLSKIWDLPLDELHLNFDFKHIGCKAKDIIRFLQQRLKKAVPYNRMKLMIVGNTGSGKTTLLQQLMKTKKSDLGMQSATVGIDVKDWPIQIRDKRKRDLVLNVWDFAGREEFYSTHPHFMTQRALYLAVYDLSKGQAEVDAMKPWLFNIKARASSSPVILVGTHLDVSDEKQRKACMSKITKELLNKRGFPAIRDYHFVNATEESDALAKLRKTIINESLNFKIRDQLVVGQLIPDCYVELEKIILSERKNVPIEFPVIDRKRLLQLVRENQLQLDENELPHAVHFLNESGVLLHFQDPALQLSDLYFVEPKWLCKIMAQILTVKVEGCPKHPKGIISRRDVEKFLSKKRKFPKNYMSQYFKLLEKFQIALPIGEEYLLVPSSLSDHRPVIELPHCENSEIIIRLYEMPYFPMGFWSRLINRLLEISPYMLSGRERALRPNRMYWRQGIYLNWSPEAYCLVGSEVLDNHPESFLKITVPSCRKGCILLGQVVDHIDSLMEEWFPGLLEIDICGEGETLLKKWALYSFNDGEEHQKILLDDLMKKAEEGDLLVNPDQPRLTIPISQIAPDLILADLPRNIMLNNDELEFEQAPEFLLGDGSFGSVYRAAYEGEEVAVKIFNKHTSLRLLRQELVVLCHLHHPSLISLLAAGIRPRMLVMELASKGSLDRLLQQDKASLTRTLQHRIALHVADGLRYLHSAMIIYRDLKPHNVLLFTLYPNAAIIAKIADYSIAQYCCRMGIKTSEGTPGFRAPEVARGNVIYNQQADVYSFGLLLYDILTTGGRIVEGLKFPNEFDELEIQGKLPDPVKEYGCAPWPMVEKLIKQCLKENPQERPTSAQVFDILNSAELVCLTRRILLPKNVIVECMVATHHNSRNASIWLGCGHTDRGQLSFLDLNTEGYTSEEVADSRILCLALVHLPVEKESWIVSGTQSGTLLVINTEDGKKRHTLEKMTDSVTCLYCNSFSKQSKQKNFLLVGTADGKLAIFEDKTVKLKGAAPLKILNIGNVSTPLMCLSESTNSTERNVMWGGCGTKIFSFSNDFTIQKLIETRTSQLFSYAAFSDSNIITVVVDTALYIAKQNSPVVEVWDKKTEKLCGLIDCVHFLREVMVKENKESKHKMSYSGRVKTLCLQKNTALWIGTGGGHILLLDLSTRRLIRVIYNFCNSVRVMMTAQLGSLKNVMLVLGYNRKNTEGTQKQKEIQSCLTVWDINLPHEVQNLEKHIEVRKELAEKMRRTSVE
# Method in brief: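 Purified human LRRK2 G2019S (16 ng) with 25 μM ATP and 0.2 μg substrate, 2 h at 25° C. in Tris-HCl pH 7.4, MgCl2, BSA, DTT buffer; compounds at 12 final concentrations, 50 μM down to 0.000001024 μM. ADP-Glo luminescence versus solvent control gave IC50.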
Structure (SMILES),GI50 (MDA-MB-468 cell line) [nM],IC50 (human GST-DYRK1A) [nM],IC50 (LRRK2 (G2019S)) [nM]
"N#Cc1c[nH]c2nc(Nc3ccc(C(=O)N4CCOCC4)c4c3OCCO4)nc(NCC3CCCC3)c12 [Example 133, 4-((cyclopentylmethyl)amino)-2-((8-(morpholine-4-carbonyl)-2,3-dihydrobenzo[b][1,4]dioxin-5-yl)amino)-7H-pyrrolo[2,3-d]pyrimidine-5-carbonitrile]",51 to 100,301 to 1000,
"N#Cc1c[nH]c2nc(Nc3ccc(C(=O)N4CCC(N5CCOCC5)CC4)c4c3OCCO4)nc(C3CC3)c12 [Example 221, 4-cyclopropyl-2-((8-(4-morpholinopiperidine-1-carbonyl)-2,3-dihydrobenzo[b][1,4]dioxin-5-yl)amino)-7H-pyrrolo[2,3-d]pyrimidine-5-carbonitrile]",301 to 1000,< 100,
"CCCNc1nc(Nc2ccc(C(=O)N3CCC(N4CCOCC4)CC3)c3c2OCCO3)nc2[nH]cc(C#N)c12 [Example 138, 2-((8-(4-morpholinopiperidine-1-carbonyl)-2,3-dihydrobenzo[b][1,4]dioxin-5-yl)amino)-4-(propylamino)-7H-pyrrolo[2,3-d]pyrimidine-5-carbonitrile]",,101 to 300,< 100
CCN1CCP(=O)(c2ccc(Nc3nc(C4CC4)c4c(C#N)c[nH]c4n3)c(OC)c2)CC1 [Example 261],301 to 1000,,
"CNc1nc(Nc2ccc(C(=O)N3CCC(N4CCOCC4)CC3)c3c2OCCO3)nc2[nH]cc(C(F)(F)F)c12 [Example 238, (8-((4-(methylamino)-5-(trifluoromethyl)-7H-pyrrolo[2,3-d]pyrimidin-2-yl)amino)-2,3-dihydrobenzo[b][1,4]dioxin-5-yl)(4-morpholinopiperidin-1-yl)methanone]",,< 100,< 100
COc1cc(P2(=O)CCN(C3CC3)CC2)ccc1Nc1nc(NC2CCCC2)c2c(C(F)(F)F)c[nH]c2n1 [Example 413],,301 to 1000,301 to 1000

# Second part, the compound after the results:
GI50 (MDA-MB-468 cell line) [nM],IC50 (human GST-DYRK1A) [nM],IC50 (LRRK2 (G2019S)) [nM],Structure (SMILES)
301 to 1000,,101 to 300,COc1cc(S(=O)(=O)N2CCC(N3CCOCC3)CC2)ccc1Nc1nc(C2CC2)c2c(C(F)(F)F)c[nH]c2n1 [Example 226]
,101 to 300,,"CNc1nc(Nc2ccc(P3(=O)CCN(C4CC4)CC3)cc2OC)nc2[nH]cc(C(F)(F)F)c12 [Example 411, 1-cyclopropyl-4-(3-methoxy-4-((4-(methylamino)-5-(trifluoromethyl)-7H-pyrrolo[2,3-d]pyrimidin-2-yl)amino)phenyl)-1,4-azaphosphinane-4-oxide]"
301 to 1000,,,"COc1cc(S(=O)(=O)N2CCOCC2)ccc1Nc1nc(C2CC2)c2c(C#N)c[nH]c2n1 [Example 223, 4-cyclopropyl-2-((2-methoxy-4-(morpholinosulfonyl)phenyl)amino)-7H-pyrrolo[2,3-d]pyrimidine-5-carbonitrile]"
,,101 to 300,"CCCNc1nc(Nc2ccc(S(=O)(=O)N3CCC(N4CCOCC4)CC3)cc2OC)nc2[nH]cc(C(F)(F)F)c12 [Example 161, N^2-(2-methoxy-4-((4-morpholinopiperidin-1-yl)sulfonyl)phenyl)-N^4-propyl-5-(trifluoromethyl)-7H-pyrrolo[2,3-d]pyrimidine-2,4-diamine]"
,,< 100,"CCNc1nc(Nc2ccc(S(=O)(=O)N3CCC(N4CCOCC4)CC3)cc2OC)nc2[nH]cc(C(F)(F)F)c12 [Example 158, N^4-ethyl-N^2-(2-methoxy-4-((4-morpholinopiperidin-1-yl)sulfonyl)phenyl)-5-(trifluoromethyl)-7H-pyrrolo[2,3-d]pyrimidine-2,4-diamine 2,2,2-trifluoroacetate]"
< 50,,,"COc1cc(S(=O)(=O)N2CCC(N3CCOCC3)CC2)ccc1Nc1nc(C2CC2)c2c(C#N)c[nH]c2n1 [Example 224, 4-cyclopropyl-2-((2-methoxy-4-((4-morpholinopiperidin-1-yl)sulfonyl)phenyl)amino)-7H-pyrrolo[2,3-d]pyrimidine-5-carbonitrile]"
